In article PMC11862924, “Phenylpyrazoles as Inhibitors of the m^6A RNA-Binding Protein YTHDF2” (JACS Au, 2025):

Assays:
[1] = molecular target: T1, YTHDF2 (residues 383–553) (Homo sapiens, UniProt Q9Y5A9); assay: Fluorescence polarization (FP) assay, YTHDF2–m6A RNA interaction; assay type: binding; details: 100 μM compound; YTHDF2 (residues 383–553, 20 nM), FAM-labeled m6A RNA probe 5 nM; average ± SD
T1 construct: A YTHDF2 YTH domain construct (residues 383–553) was subcloned to a pOPIN plasmid; made in house; host or cells: Escherichia coli BL21(DE3)
T1 sequence (Q9Y5A9 383-553): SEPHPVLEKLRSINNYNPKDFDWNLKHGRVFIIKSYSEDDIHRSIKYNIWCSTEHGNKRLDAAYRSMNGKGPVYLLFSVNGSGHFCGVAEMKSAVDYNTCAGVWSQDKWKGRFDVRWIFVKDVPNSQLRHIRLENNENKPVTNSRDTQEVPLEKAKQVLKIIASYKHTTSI
Experimental: The FP assay was performed in 384-well black plates (Corning no. 4514) with a total reaction volume of 15 μL. The final concentrations of protein (YTHDF2) and RNA were […], respectively, in a buffer containing 20 mM HEPES/KOH pH 7.5, 50 mM NaCl, 0.005% Tween 20, and 1 mM GSH (DTT). Compounds were incubated with protein, added FAM-m^6A RNA probe ([…](m6)ACUGUG) (purchased from IDT), and incubated at 4 °C for 30 min. The fluorescence polarization was measured using a plate reader (TECAN Spark) under an excitation wavelength of 485 nm and an emission wavelength of 535 nm with a bandwidth of 20 nm. […] The data were determined using GraphPad Prism 9.

[2] = MTT cytotoxicity assay, K562; assay type: cell-based; details: human, K562 cells, triplicates, read-out: Cytotoxicity against cancer cells (IC50), K562
Experimental: (§1) JAR, K562, and HCT116 cells were seeded in 96-well plates (3500 cells/well) and incubated for 8 h. The medium with different concentrations of compounds (100, 33.3, 11.1, 3.7, 1.2, and 0.4 μM) was added to the 96-well plates. Data were normalized to the medium with 0.1% DMSO. After incubation for 72 h, MTT solution (5 mg/mL, 20 μL) was added per well in a dark environment and incubated for 4 h. After the medium was discarded, DMSO (150 μL) was added per well, and the absorbance was measured at 492 nm by a plate reader (TECAN Spark).

[3] = MTT cytotoxicity assay, JAR; assay type: cell-based; details: human, JAR cells, triplicates, read-out: Cytotoxicity against cancer cells (IC50), JAR
Experimental: as §1

JAR = assay: CCK-8 proliferation assay, JAR; assay type: cell-based; details: Homo sapiens; CCK-8 kit assay, triplicates, 72 h; read-out: Anti-proliferation activity against cancer cells (IC50), JAR
Experimental: (§2) The JAR, K562, HCT116, and MOLM13 cells were seeded in 96-well plates (3000 cells/well). After being cultured overnight, compounds were added together with the DMSO treatment (0.1%) as a control. After 72 h, CCK-8 solution (Vazyme, A311) was added, and the cells were incubated at 37 °C for 4 h. The absorbance was measured at 450 nm using a plate reader (TECAN Spark).

HCT116 = assay: CCK-8 proliferation assay, HCT116; assay type: cell-based; details: Homo sapiens, HCT-116; CCK-8 kit assay, triplicates, 72 h; read-out: Anti-proliferation activity against cancer cells (IC50), HCT116
Experimental: as §2

[4] = MTT cytotoxicity assay, HCT116; assay type: cell-based; details: human, HCT116 cells, triplicates, read-out: Cytotoxicity against cancer cells (IC50), HCT116
Experimental: as §1

K562 = assay: CCK-8 proliferation assay, K562; assay type: cell-based; details: Homo sapiens, CCK-8 kit assay, triplicates, 72 h, read-out: Anti-proliferation activity against cancer cells (IC50), K562
Experimental: as §2

Compound	inhibition at 100 µM [1]	IC50 at 72 h [2]	IC50 at 72 h [3]	IC50 (JAR)	IC50 (HCT116)	IC50 at 72 h [4]	IC50 (K562)	inhibition at 100 μM in the FP assay [1]
CS(=O)(=O)c1ccc(-n2cc(C(=O)c3ccccc3O)cn2)cc1 [CK-50]	24.3 ± 4%	48.2 ± 11.1 µM	> 50 µM	> 50 µM	> 50 µM	> 50 µM	> 50 µM	
COc1ccc(-n2cc(C(=O)c3ccccc3O)cn2)cn1 [CK-47]	25.5 ± 6.7%	> 50 µM	> 50 µM	> 50 µM	> 50 µM	> 50 µM	> 50 µM	
O=C(c1cnn(-c2ccc(Br)cc2)c1)c1ccccc1O [CK-28]	42.2 ± 12.1%	> 50 µM	> 50 µM	> 50 µM	> 50 µM	> 50 µM	> 50 µM	
COc1cccc(O)c1C(=O)c1cnn(-c2ccc(C(=O)O)cc2)c1 [CK-85]	64.7 ± 8.4%	> 50 µM	> 50 µM	46.2 ± 2.6 µM	> 50 µM	> 50 µM	> 50 µM	
COC(=O)c1ccc(-n2cc(/C=C(\C#N)C(N)=O)cn2)cc1 [CK-94]	< 30%							26.6 ± 1.9%
O=C(c1cnn(-c2ccccc2C(=O)O)c1)c1ccccc1O [CK-25]	22.1 ± 3.3%	44.3 ± 13.1 µM	> 50 µM	> 50 µM	> 50 µM	> 50 µM	> 50 µM	
COc1ccccc1-n1cc(C(=O)c2ccccc2O)cn1 [CK-46]	5.4 ± 4.2%	23.8 ± 4.7 µM	> 50 µM	> 50 µM	> 50 µM	49.4 ± 22.1 µM	42.9 ± 6.2 µM	
O=C(O)c1ccc(-n2cc(C(=O)c3ccccc3O)cn2)cc1 [CK-24]	5.2 ± 6.7%	43.2 ± 15.7 µM	> 50 µM	> 50 µM	> 50 µM	> 50 µM	> 50 µM	
O=C(c1cnn(-c2ccc(C(F)(F)F)cc2)c1)c1ccccc1O [CK-48]	17.5 ± 4.2%	22.8 ± 2.5 µM	37 ± 12.7 µM	> 50 µM	> 50 µM	43.1 ± 8.6 µM	> 50 µM	
O=C(c1cnn(-c2ccccc2)c1)c1ccccc1O [CK-22]	-3.7 ± 7.8%	32.1 ± 12.2 µM	48.1 ± 10.2 µM	27.6 ± 2.8 µM	> 50 µM	43.5 ± 12.3 µM	28.3 ± 5.4 µM	
NS(=O)(=O)c1ccc(-n2cc(C(=O)c3ccccc3O)cn2)cc1 [CK-49]	1.7 ± 6.5%	20.1 ± 12.3 µM	34.6 ± 5.9 µM	> 50 µM	> 50 µM	29 ± 11.4 µM	> 50 µM	
O=C(O)c1cccc(-n2cc(C(=O)c3ccccc3O)cn2)c1 [CK-23, 3-(4-(2-hydroxybenzoyl)-1H-pyrazol-1-yl)benzoic acid]		21.5 ± 8.2 µM	45 ± 4.6 µM	> 50 µM	> 50 µM	12.9 ± 2.5 µM	> 50 µM	
O=C(O)c1ccc(-n2cc(C(=O)c3ccc(F)cc3O)cn2)cc1 [CK-89]	44.4 ± 1.8%	43.8 ± 22.7 µM	> 50 µM	> 50 µM	> 50 µM	32.8 ± 7.5 µM	> 50 µM	
O=C(c1cnn(-c2ccc(OC(F)(F)F)cc2)c1)c1ccccc1O [CK-39]	6.9 ± 3.3%	19.8 ± 14.3 µM	46.2 ± 20.8 µM	31.2 ± 3.5 µM	38.9 ± 12.1 µM	26.4 ± 10.3 µM	25.6 ± 2.3 µM	
Cc1ccc(C(=O)c2cnn(-c3ccc(C(=O)O)cc3)c2)c(O)c1 [CK-73]	26.3 ± 6.8%	> 50 µM	> 50 µM	> 50 µM	> 50 µM	> 50 µM	> 50 µM	
O=C(O)c1ccc(-n2cc(C(=O)c3cc(Br)ccc3O)cn2)cc1 [CK-60]	63.6 ± 10.8%	16.4 ± 8.2 µM	37.1 ± 11.4 µM	> 50 µM	> 50 µM	12.5 ± 6.4 µM	> 50 µM	
Cc1ccccc1-n1cc(C(=O)c2ccccc2O)cn1 [CK-45]	22.1 ± 6.6%	21.9 ± 7.6 µM	43.2 ± 15.5 µM	42.8 ± 1.2 µM	> 50 µM	26 ± 16.8 µM	33.1 ± 5.7 µM	
N#Cc1ccc(-n2cc(C(=O)c3ccccc3O)cn2)cc1 [CK-38]	44.5 ± 7.1%	43.2 ± 11.2 µM	> 50 µM	> 50 µM	> 50 µM	> 50 µM	> 50 µM	
O=C(c1cnn(-c2ccc(Cl)cc2)c1)c1ccccc1O [CK-27]	-5.2 ± 2.8%	> 50 µM	> 50 µM	> 50 µM	45.6 ± 2.5 µM	> 50 µM	44.8 ± 8.7 µM	
COc1ccc(-n2cc(C(=O)c3ccccc3O)cn2)cc1 [CK-40]	-4.8 ± 3.2%	33.2 ± 5.8 µM	44.6 ± 12.3 µM	> 50 µM	> 50 µM	25.5 ± 1.8 µM	39.2 ± 6.1 µM	
O=C(O)c1ccc(-n2cc(C(=O)c3cccc(Cl)c3O)cn2)cc1 [CK-96]	52.2 ± 10.1%	25.4 ± 7.8 µM	40.2 ± 12.7 µM	> 50 µM	> 50 µM	20.6 ± 8.1 µM	> 50 µM	
O=C(c1cnn(-c2ccccc2Cl)c1)c1ccccc1O [CK-44]	0.8 ± 7%	32.3 ± 8.8 µM	44.7 ± 14.4 µM	41.2 ± 8.5 µM	> 50 µM	18.5 ± 14.1 µM	34.9 ± 3.5 µM	
